Test results taken from US7645752B2, “Sulfonyl substituted 1H-indoles as ligands for the 5-hydroxytryptamine receptors” (Wyeth LLC, priority 2006, dated 2010).

target: T1, human cloned 5-HT6 receptors (Homo sapiens, UniProt P50406); experiment: 5-HT6 binding affinity, [3H]-LSD displacement on membranes of Hela cells; conditions: not given
T1 construct: expressed in transfected cells; host or cells: HeLa cells
Method: The affinity of test compounds for the 5-HT6 receptor is evaluated in the following manner. Cultured Hela cells expressing human cloned 5-HT6 receptors are harvested and centrifuged at low speed (1,000×g) for 10.0 min to remove the culture media. The harvested cells are suspended in half volume of fresh physiological phosphate buffered saline solution and recentrifuged at the same speed. This operation is repeated. The collected cells are then homogenized in ten volumes of 50 mM Tris.HCl (pH 7.4) and 0.5 mM EDTA. The homogenate is centrifuged at 40,000×g for 30.0 min and the precipitate is collected. The obtained pellet is resuspended in 10 volumes of Tris.HCl buffer and recentrifuged at the same speed. The final pellet is suspended in a small volume of Tris.HCl buffer and the tissue protein content is determined in aliquots of 10-25 microliter volumes. […] The volume of the suspended cell membranes is adjusted to give a tissue protein concentration of 1.0 mg/mL of suspension. The prepared membrane suspension (10 times concentrated) is aliquoted in 1.0 mL volumes and stored at −70° C. until used in subsequent binding experiments.
Binding experiments are performed in a 96 well microtiter plate format in a total volume of 200 microliters. […] The test compounds are added in 20.0 microliter volume.
The bound complex caught on the filter disk is allowed to air dry and the radioactivity is measured in a Packard TopCount® equipped with six photomultiplier detectors, after the addition of 40.0 microliter Microscint®-20 scintillant to each shallow well.
Binding in the presence of varying concentrations of test compound is expressed as a percentage of specific binding in the absence of test compound. The results are plotted as log % bound versus log concentration of the test compound.

T1 sequence (P50406 whole entry): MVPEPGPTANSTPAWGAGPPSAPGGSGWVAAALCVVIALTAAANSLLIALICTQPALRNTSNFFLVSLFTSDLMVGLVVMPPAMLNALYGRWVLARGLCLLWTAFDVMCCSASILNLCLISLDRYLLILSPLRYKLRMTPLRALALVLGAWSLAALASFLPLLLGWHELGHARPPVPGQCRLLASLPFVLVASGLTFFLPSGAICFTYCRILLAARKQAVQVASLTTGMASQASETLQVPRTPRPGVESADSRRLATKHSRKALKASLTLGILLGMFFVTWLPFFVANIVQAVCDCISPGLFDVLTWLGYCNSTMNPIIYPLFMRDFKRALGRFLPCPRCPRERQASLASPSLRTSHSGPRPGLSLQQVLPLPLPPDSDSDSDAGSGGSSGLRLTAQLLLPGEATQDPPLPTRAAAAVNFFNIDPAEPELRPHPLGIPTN

SMILES	Ki
CCCNCCc1ccc2[nH]cc(S(=O)(=O)c3ccccc3)c2c1 [Example 2, N-{2-[3-(phenylsulfonyl)-1H-indol-5-yl]ethyl}-N-propylamine]	34.7 nM
CC(C)NCCc1ccc2[nH]cc(S(=O)(=O)c3ccccc3)c2c1 [Example 3, N-{2-[3-(phenylsulfonyl)-1H-indol-5-yl]ethyl}propan-2-amine]	56.7 nM
NCCc1ccc2[nH]cc(S(=O)(=O)c3ccccc3)c2c1 [Example 12, {2-[3-(phenylsulfonyl)-1H-indol-5-yl]ethyl}amine]	7 nM
O=S(=O)(c1ccccc1)c1c[nH]c2c(CCNC3CC3)cccc12 [Example 22, N-{2-[3-(phenylsulfonyl)-1H-indol-7-yl]ethyl}cyclopropanamine]	5.5 nM

same assay, conditions: Table 1; 5-HT6 binding, at 1 micromole; read-out: % inhibition at 1 micromole

SMILES	inhibition at 1 µM
CNCCc1cccc2[nH]cc(S(=O)(=O)c3cccc(F)c3)c12 [Example 63, N-methyl-N-{2-[3-(3-fluorophenylsulfonyl)-1H-indol-4-yl]ethyl}amine]	61%
CCNCCc1cccc2[nH]cc(S(=O)(=O)c3cccc(F)c3)c12 [Example 64, N-ethyl-N-{2-[3-(3-fluorophenylsulfonyl)-1H-indol-4-yl]ethyl}amine]	57%
CCCNCCc1cccc2[nH]cc(S(=O)(=O)c3cccc(F)c3)c12 [Example 65, N-{2-[3-(3-fluorophenylsulfonyl)-1H-indol-4-yl]ethyl}-N-propylamine]	67%
CC(C)NCCc1cccc2[nH]cc(S(=O)(=O)c3cccc(F)c3)c12 [Example 66, N-{2-[3-(3-fluorophenylsulfonyl)-1H-indol-4-yl]ethyl}propan-2-amine]	58%
O=S(=O)(c1cccc(F)c1)c1c[nH]c2cccc(CCNC3CC3)c12 [Example 67, N-{2-[3-(3-fluorophenylsulfonyl)-1H-indol-4-yl]ethyl}cyclopropanamine]	77%
CN(CCc1cccc2[nH]cc(S(=O)(=O)c3cccc(F)c3)c12)C1CCCCC1 [Example 72, N-cyclohexyl-N-methyl-N-{2-[3-(3-fluorophenylsulfonyl)-1H-indol-4-yl]ethyl}amine]	66%
CCN(CC)CCc1cccc2[nH]cc(S(=O)(=O)c3cccc(F)c3)c12 [Example 73, N,N-diethyl-N-{2-[3-(3-fluorophenylsulfonyl)-1H-indol-4-yl]ethyl}amine]	78%
O=S(=O)(c1cccc(F)c1)c1c[nH]c2cccc(CCN3CCCCC3)c12 [Example 75, 3-(3-fluorophenylsulfonyl)-4-(2-piperidin-1-ylethyl)-1H-indole]	69%
O=S(=O)(c1cccc(F)c1)c1c[nH]c2cccc(CCN3CCOCC3)c12 [Example 76, 4-(2-morpholin-4-ylethyl)-3-(3-fluorophenylsulfonyl)-1H-indole]	62%

same assay, conditions: Table 1; [3H]-LSD 3.0 nM, Hela cell membranes; read-out: Ki (nM) @ 5-HT6 receptor

SMILES	Ki
CN(C)CCc1ccc2[nH]cc(S(=O)(=O)c3ccccc3)c2c1 [Example 1, N,N-dimethyl-N-{2-[3-(phenylsulfonyl)-1H-indol-5-yl]ethyl}amine]	9 nM
O=S(=O)(c1ccccc1)c1c[nH]c2ccc(CCNC3CC3)cc12 [Example 4, N-{2-[3-(phenylsulfonyl)-1H-indol-5-yl]ethyl}cyclopropanamine]	15 nM
O=S(=O)(c1ccccc1)c1c[nH]c2ccc(CCNC3CCCC3)cc12 [Example 5, N-{2-[3-(phenylsulfonyl)-1H-indol-5-yl]ethyl}cyclopentanamine]	37 nM
O=S(=O)(c1ccccc1)c1c[nH]c2ccc(CCNCc3ccccc3)cc12 [Example 6, N-benzyl-N-{2-[3-(phenylsulfonyl)-1H-indol-5-yl]ethyl}amine]	24 nM
CCN(C)CCc1ccc2[nH]cc(S(=O)(=O)c3ccccc3)c2c1 [Example 7, N-ethyl-N-methyl-N-{2-[3-(phenylsulfonyl)-1H-indol-5-yl]ethyl}amine]	7 nM
CCN(CC)CCc1ccc2[nH]cc(S(=O)(=O)c3ccccc3)c2c1 [Example 8, N,N-diethyl-N-{2-[3-(phenylsulfonyl)-1H-indol-5-yl]ethyl}amine]	17 nM
O=S(=O)(c1ccccc1)c1c[nH]c2ccc(CCN3CCCC3)cc12 [Example 9, 3-(phenylsulfonyl)-5-(2-pyrrolidin-1-ylethyl)-1H-indole]	28 nM
O=S(=O)(c1ccccc1)c1c[nH]c2ccc(CCN3CCCCC3)cc12 [Example 10, 3-(phenylsulfonyl)-5-(2-piperidin-1-ylethyl)-1H-indole]	10.3 nM
O=S(=O)(c1ccccc1)c1c[nH]c2ccc(CCN3CCOCC3)cc12 [Example 11, 5-(2-morpholin-4-ylethyl)-3-(phenylsulfonyl)-1H-indole]	39 nM
O=S(=O)(c1ccccc1)c1c[nH]c2ccc(CCN3CCNCC3)cc12 [Example 13, 3-(phenylsulfonyl)-5-(2-piperazin-1-ylethyl)-1H-indole]	68 nM
CN(C)CCc1cccc2c(S(=O)(=O)c3ccccc3)c[nH]c12 [Example 18, N,N-dimethyl-N-{2-[3-(phenylsulfonyl)-1H-indol-7-yl]ethyl}amine]	2.3 nM
CNCCc1cccc2c(S(=O)(=O)c3ccccc3)c[nH]c12 [Example 19, N-methyl-N-{2-[3-(phenylsulfonyl)-1H-indol-7-yl]ethyl}amine]	2.3 nM
CCCNCCc1cccc2c(S(=O)(=O)c3ccccc3)c[nH]c12 [Example 20, N-{2-[3-(phenylsulfonyl)-1H-indol-7-yl]ethyl}-N-propylamine]	9.1 nM
CC(C)NCCc1cccc2c(S(=O)(=O)c3ccccc3)c[nH]c12 [Example 21, N-{2-[3-(phenylsulfonyl)-1H-indol-7-yl]ethyl}propan-2-amine]	9.4 nM
O=S(=O)(c1ccccc1)c1c[nH]c2c(CCNC3CCCC3)cccc12 [Example 23, N-{2-[3-(phenylsulfonyl)-1H-indol-7-yl]ethyl}cyclopentanamine]	18 nM
CCN(C)CCc1cccc2c(S(=O)(=O)c3ccccc3)c[nH]c12 [Example 24, N-ethyl-N-methyl-N-{2-[3-(phenylsulfonyl)-1H-indol-7-yl]ethyl}amine]	11 nM
CCN(CC)CCc1cccc2c(S(=O)(=O)c3ccccc3)c[nH]c12 [Example 25, N,N-diethyl-N-{2-[3-(phenylsulfonyl)-1H-indol-7-yl]ethyl}amine]	21 nM
O=S(=O)(c1ccccc1)c1c[nH]c2c(CCN3CCCC3)cccc12 [Example 26, 3-(phenylsulfonyl)-7-(2-pyrrolidin-1-ylethyl)-1H-indole]	18 nM
O=S(=O)(c1ccccc1)c1c[nH]c2c(CCN3CCCCC3)cccc12 [Example 27, 3-(phenylsulfonyl)-7-(2-piperidin-1-ylethyl)-1H-indole]	13 nM
O=S(=O)(c1ccccc1)c1c[nH]c2c(CCN3CCOCC3)cccc12 [Example 28, 7-(2-morpholin-4-ylethyl)-3-(phenylsulfonyl)-1H-indole]	99 nM
NCCc1cccc2c(S(=O)(=O)c3ccccc3)c[nH]c12 [Example 29, {2-[3-(phenylsulfonyl)-1H-indol-7-yl]ethyl}amine]	1.5 nM
O=S(=O)(c1ccccc1)c1c[nH]c2c(CCN3CCNCC3)cccc12 [Example 30, 3-(phenylsulfonyl)-7-(2-piperazin-1-ylethyl)-1H-indole]	7.5 nM
O=S(=O)(c1cccc(F)c1)c1c[nH]c2cccc(CCNC3CCC3)c12 [Example 68, N-{2-[3-(3-fluorophenylsulfonyl)-1H-indol-4-yl]ethyl}cyclobutanamine]	23.5 nM
O=S(=O)(c1cccc(F)c1)c1c[nH]c2cccc(CCNC3CCCC3)c12 [Example 69, N-{2-[3-(3-fluorophenylsulfonyl)-1H-indol-4-yl]ethyl}cyclopentanamine]	78 nM
O=S(=O)(c1cccc(F)c1)c1c[nH]c2cccc(CCNC3CCCCC3)c12 [Example 70, N-{2-[3-(3-fluorophenylsulfonyl)-1H-indol-4-yl]ethyl}cyclohexanamine]	180 nM
CCN(C)CCc1cccc2[nH]cc(S(=O)(=O)c3cccc(F)c3)c12 [Example 71, N-ethyl-N-methyl-N-{2-[3-(3-fluorophenylsulfonyl)-1H-indol-4-yl]ethyl}amine]	116 nM
O=S(=O)(c1cccc(F)c1)c1c[nH]c2cccc(CCN3CCCC3)c12 [Example 74, 3-(3-fluorophenylsulfonyl)-4-(2-pyrrolidin-1-ylethyl)-1H-indole]	72 nM
CC(C)CNCCc1cccc2[nH]cc(S(=O)(=O)c3cccc(F)c3)c12 [Example 77, N-isobutyl-N-{2-[3-(3-fluorophenylsulfonyl)-1H-indol-4-yl]ethyl}amine]	14 nM
CCC(CC)NCCc1cccc2[nH]cc(S(=O)(=O)c3cccc(F)c3)c12 [Example 78, (1-Ethyl-propyl)-{2-[3-(3-fluorophenylsulfonyl)-1H-indol-4-yl]-ethyl}-amine]	80 nM

same assay, conditions: read-out: % inhibition at 1 micromole

SMILES	inhibition at 1 µM
CN(C)CCc1cccc2[nH]cc(S(=O)(=O)c3cccc(F)c3)c12 [Example 62, N,N-dimethyl-N-{2-[3-(3-fluorophenylsulfonyl)-1H-indol-4-yl]ethyl}amine]	72%
